Experimental data as given in patent EP0360258B1, “Amino acid quinoline and naphthyridine derivatives” (ABBOTT LABORATORIES, priority 1988, dated 1990).
Converted amounts (≈) assume the structure as drawn. Where a name gives a salt, the structure may show the parent alone. Read-outs that look alike come from different tables or passages of the source.

Legend:
[1] = tested on: PROVIDENCIA STUARTII CMX 640; assay: In vitro antibacterial activity, agar dilution MIC (BHIA); assay type: cell-based; conditions: 18 h
[2] = tested on: P[…] 296I; assay: as above; assay type: cell-based; conditions: Burkholderia cepacia, 18 h
From the text: (§1) The MIC results are in ug/ml. TABLE VII

[3] = tested on: EN[…] ATCC 8043; assay: as above; assay type: cell-based; conditions: Enterococcus faecium, ATCC8043, 18 h
From the text: as §1

[4] = tested on: STR[…] EES61; assay: as above; assay type: cell-based; conditions: Streptococcus pyogenes, 18 h
From the text: as §1

[5] = tested on: M[…] ATCC 9341; assay: as above; assay type: cell-based; conditions: Micrococcus luteus, ATCC9341, 18 h
From the text: as §1

[6] = tested on: STR[…] 508; assay: as above; assay type: cell-based; conditions: Streptococcus agalactiae, 18 h
From the text: as §1

[7] = tested on: M[…] ATCC 4698; assay: as above; assay type: cell-based; conditions: Micrococcus luteus, ATCC4698, 18 h
From the text: as §1

[8] = tested on: STREPTOCOCCUS PYOGENES 930 CONST; assay: as above; assay type: cell-based; conditions: 18 h
[9] = tested on: PSEUDOMONAS AERUGINOSA K799/61; assay: as above; assay type: cell-based; conditions: Brain Heart Infusion Agar (BHIA), 36° C, 18 h, strain K799/61
[10] = tested on: KLEBSIELLA PNEUMONIAE ATCC 8045; assay: as above; assay type: cell-based
[11] = tested on: STR[…] 2548 INDUC; assay: as above; assay type: cell-based; conditions: Streptococcus pyogenes, 18 h
[12] = tested on: ESCHERICHIA COLI KNK 437; assay: as above; assay type: cell-based; conditions: Brain Heart Infusion Agar (BHIA), 36° C, 18 h, strain KNK 437
[13] = tested on: ENTEROBACTER AEROGENES ATCC 13048; assay: as above; assay type: cell-based; conditions: Klebsiella aerogenes
[14] = tested on: ESCHERICHIA COLI SS; assay: as above; assay type: cell-based; conditions: Brain Heart Infusion Agar (BHIA), 36° C, 18 h, strain SS
[15] = tested on: ACINETOBACTER SP CMX 669; assay: as above; assay type: cell-based; conditions: 18 h
[16] = tested on: ESCHERICHIA COLI JUHL; assay: as above; assay type: cell-based; conditions: 18 h
[17] = tested on: ESCHERICHIA COLI H560; assay: as above; assay type: cell-based; conditions: 18 h
[18] = physchem
[19] = tested on: ESCHERICHIA COLI DC-2; assay: In vitro antibacterial activity, agar dilution MIC (BHIA); assay type: cell-based; conditions: 18 h
[20] = tested on: STREPTOCOCCUS BOVIS A5169; assay: as above; assay type: cell-based; conditions: Streptococcus equinus, 18 h
[21] = tested on: PSEUDOMONAS AERUGINOSA BMH10; assay: as above; assay type: cell-based; conditions: 18 h
[22] = tested on: PSEUDOMONAS AERUGINOSA A5007; assay: as above; assay type: cell-based; conditions: Brain Heart Infusion Agar (BHIA), 36° C, 18 h, strain A5007
From the text: as §1

[23] = tested on: PSEUDOMONAS AERUGINOSA K799/WT; assay: as above; assay type: cell-based; conditions: Brain Heart Infusion Agar (BHIA), 36° C, 18 h, strain K799/WT
From the text: as §1

[24] = Plasma level in dog after oral dose; assay type: in vivo; conditions: 10 mg/kg, 10 mg equivalent/kg oral dose, HPLC
From the text: The plasma samples were collected and determined by the HPLC analysis.

[25] = ATCC8045, Brain Heart Infusion Agar (BHIA), 36° C, 18 h, strain ATCC 8045, read-out: MIC
[26] = ATCC13048, Brain Heart Infusion Agar (BHIA), 36° C, 18 h, strain ATCC 13048, read-out: MIC
[27] = Brain Heart Infusion Agar (BHIA), 36° C, strain CMX 669, read-out: MIC
[28] = Brain Heart Infusion Agar (BHIA), 36° C, strain JUHL, read-out: MIC
[29] = Brain Heart Infusion Agar (BHIA), 36° C, strain BMH10, read-out: MIC
[30] = Brain Heart Infusion Agar (BHIA), 36° C, strain CMX 640, read-out: MIC
[31] = Brain Heart Infusion Agar (BHIA), 36° C, strain A5169, read-out: MIC

| Compound | MIC [2] | MIC [3] | MIC [4] | MIC [5] | MIC [6] | MIC [7] | MIC [8] | MIC [9] | MIC [10, 25] | MIC [11] | MIC [12] | MIC [13, 26] | MIC [14] | MIC [15, 27] | MIC [16, 28] | MIC [17] | solubility ([18]; pH 7.4) | solubility ([18]; water) | MIC [19] | MIC [21, 29] | further results |
| --- | --- | --- | --- | --- | --- | --- | --- | --- | --- | --- | --- | --- | --- | --- | --- | --- | --- | --- | --- | --- | --- |
| NCC(=O)N[C@@H](Cc1ccccc1)C(=O)NC1CCN(c2nc3c(cc2F)c(=O)c(C(=O)O)cn3-c2ccc(F)cc2F)C1 (stereo partly drawn) [Example 1b, 7-[(3-Gly-L-Phe-amino)-1-pyrrolidinyl]-1-(2,4-difluorophenyl)-6-fluoro-1,4-dihydro-4-oxo-1,8-naphthyridine-3-carboxylic acid hydrochloride] | 50 µg/mL | 1.56 µg/mL | 1.56 µg/mL | 6.25 µg/mL | 1.56 µg/mL | 0.78 µg/mL | 0.78 µg/mL | 12.5 µg/mL | 12.5 µg/mL | 0.78 µg/mL | 25 µg/mL | 12.5 µg/mL | 0.2 µg/mL | 12.5 µg/mL | 3.12 µg/mL | 1.56 µg/mL | 1040 µg/mL | > 98000 µg/mL | 100 µg/mL | 25 µg/mL | MIC [1]: 100 µg/mL; MIC [20]: 1.56 µg/mL |
| NC(Cc1ccccc1)C(=O)NC1CCN(c2nc3c(cc2F)c(=O)c(C(=O)O)cn3-c2ccc(F)cc2F)C1 (centres unmarked) [Example 5] | > 100 µg/mL | 3.1 µg/mL (≈ 5.62 µM) | 3.1 µg/mL (≈ 5.62 µM) | 25 µg/mL (≈ 45.3 µM) | 3.1 µg/mL (≈ 5.62 µM) | 12.5 µg/mL (≈ 22.7 µM) |  | 1.56 µg/mL (≈ 2.83 µM) | 1.56 µg/mL (≈ 2.83 µM) | 0.78 µg/mL (≈ 1.41 µM) | 100 µg/mL (≈ 181 µM) |  | 0.1 µg/mL (≈ 0.181 µM) |  |  | 3.1 µg/mL (≈ 5.62 µM) | 340 µg/mL (≈ 616 µM) | > 101000 µg/mL | 50 µg/mL (≈ 90.7 µM) |  | MIC [1, 30]: > 100 µg/mL; MIC [22]: 50 µg/mL (≈ 90.7 µM); MIC [23]: 25 µg/mL (≈ 45.3 µM); MIC ([8]; Brain Heart Infusion Agar (BHIA), 36° C, strain 930 CONST, read-out: MIC): 1.56 µg/mL (≈ 2.83 µM); MIC ([13]; ATCC13048, 18 h): 12.5 µg/mL (≈ 22.7 µM); MIC [15]: 12.5 µg/mL (≈ 22.7 µM); MIC [16]: 3.1 µg/mL (≈ 5.62 µM); MIC [20, 31]: 6.2 µg/mL (≈ 11.2 µM); MIC [21]: 25 µg/mL (≈ 45.3 µM) |
| CC(N)C(=O)NC(C)C(=O)NC1CCN(c2nc3c(cc2F)c(=O)c(C(=O)O)cn3-c2ccc(F)cc2F)C1 (centres unmarked) [Example 15] | 50 µg/mL (≈ 91.5 µM) | 50 µg/mL (≈ 91.5 µM) | 12.5 µg/mL (≈ 22.9 µM) | > 100 µg/mL | 12.5 µg/mL (≈ 22.9 µM) | 100 µg/mL (≈ 183 µM) | 12.5 µg/mL (≈ 22.9 µM) | 3.1 µg/mL (≈ 5.67 µM) |  | 12.5 µg/mL (≈ 22.9 µM) | 50 µg/mL (≈ 91.5 µM) | 25 µg/mL (≈ 45.7 µM) | 0.39 µg/mL (≈ 0.714 µM) |  |  |  | 1070 µg/mL (≈ 1960 µM) | > 70000 µg/mL |  | 100 µg/mL (≈ 183 µM) | MIC [1, 30]: 100 µg/mL (≈ 183 µM); MIC [23]: 50 µg/mL (≈ 91.5 µM); MIC ([10]; ATCC8045, 18 h): 12.5 µg/mL (≈ 22.9 µM); MIC [15]: 12.5 µg/mL (≈ 22.9 µM); MIC [16]: 12.5 µg/mL (≈ 22.9 µM); MIC ([17]; Brain Heart Infusion Agar (BHIA), 36° C, strain H560, read-out: MIC): 6.2 µg/mL (≈ 11.3 µM); MIC ([19]; Brain Heart Infusion Agar (BHIA), 36° C, strain DC-2, read-out: MIC): 100 µg/mL (≈ 183 µM); MIC [20, 31]: 50 µg/mL (≈ 91.5 µM) |
| NC1CCN(c2nc3c(cc2F)c(=O)c(C(=O)O)cn3-c2ccc(F)cc2F)C1 (centres unmarked) [tosufloxacin, 7-(3-amino-1-pyrrolidinyl)-6-fluoro,1-(2,4-difluorophenyl)-1,4-dihydro-4-oxo-1,8-naphthyridine-3-carboxylic acid, reference compound] |  |  |  |  | 0.39 µg/mL (≈ 0.965 µM) |  |  |  | 0.02 µg/mL (≈ 0.0495 µM) | 0.1 µg/mL (≈ 0.247 µM) |  | 0.05 µg/mL (≈ 0.124 µM) | 0.005 µg/mL (≈ 0.0124 µM) | 0.1 µg/mL (≈ 0.247 µM) | 0.02 µg/mL (≈ 0.0495 µM) |  | 10 µg/mL (≈ 24.7 µM) | 650 µg/mL (≈ 1610 µM) | 0.39 µg/mL (≈ 0.965 µM) | 0.1 µg/mL (≈ 0.247 µM) | AUC(0-t) at 32 h [24]: 5300 ng·h/mL; Cmax ([24]; read-out: C max (range)): 670 ng/mL; MIC [20]: 0.39 µg/mL (≈ 0.965 µM) |
